Source: patent US20210322545A1 (priority 2016, published 2021)
“And” between values parts separate entries of the source, which are not always exact repeats. Equal values may be shown once. “Also recorded” adds a separate entry of the source. Read-outs that look alike come from different tables or passages of the source.

Experiments:
[1] = test system: intracranial CT-2A tumors; conditions: mouse, in vivo
SNB75 cells [2] = assay type: cell-based, human
SNB75 cells [3] = assay: cells; assay type: cell-based; conditions: Homo sapiens, SNB-75, read-out: EC50 of SMC therapy
serum cytokines = conditions: mouse, in vivo
Description: The detection of serum proteins following combinatorial SMC and anti-PD-1 treatment was analyzed by a flow cytometry-based multiplex kit (LEGENDplex inflammation panel from Biolegend).

[4] = test system: intracranial GL261 tumors; conditions: mouse, in vivo
MPC-11 Fluc cells = conditions: mouse, in vivo
HT-29 tumors = conditions: mouse, in vivo
CD8 T-cells = assay type: cell-based, mouse
[5] = test system: intracranial CT-2A tumors; conditions: mouse, in vivo; remark: listed apart in the source
glioblastoma cells = assay type: cell-based
EMT6 cells [6] = assay: cells; assay type: cell-based; conditions: Mus musculus, EMT6, read-out: EC50 of SMC therapy
EMT6, 4T1 or CT-2A cells = conditions: mouse, in vivo
[7] = mouse, in vivo
MM cells = assay type: cell-based
cancer cells = assay type: cell-based
CT-26 tumors = conditions: mouse, in vivo, sc
VSVΔ51 = assay type: cell-based
[8] = test system: U266, MM1R and MM1S cells
EMT6 mammary tumors = assay type: in vivo, mouse
glioma cells = assay type: cell-based
EMT6 cells [9] = assay type: cell-based, mouse
[10] = test system: U266, MM1R and MM1S cells; assay type: cell-based, human
TNF-α = conditions: mouse, in vivo, ip
[11] = test system: CT-2A and K1580 glioblastoma cells; assay type: cell-based, mouse
[12] = EMT6 tumors, 50 mg/kg LCL161 oral gavage

Excerpt for cIAP1/2 and XIAP: Cells were scraped, collected by centrifugation and lysed in RIPA lysis buffer containing a protease inhibitor cocktail (Roche, Laval, Canada). Equal amounts of soluble protein were separated on polyacrylamide gels followed by transfer to nitrocellulose membranes. […] Our rabbit anti-rat IAP1 and IAP3 polyclonal antibodies were used to detect human and mouse cIAP1/2 and XIAP, respectively. AlexaFluor680 (Invitrogen) or IRDye800 (Li-Cor, Lincoln, USA) were used to detect the primary antibodies, and infrared fluorescent signals were detected using the Odyssey Infrared Imaging System (Li-Cor).
Cells were scraped, collected by centrifugation, and lysed in RIPA lysis buffer containing a protease inhibitor cocktail (Roche). Tumors were excised, minced, and lysed as above. Equal amounts of soluble protein were separated on polyacrylamide gels followed by transfer to nitrocellulose membranes. […] Rabbit anti-rat IAP1 and IAP3 polyclonal antibodies were used to detect human and mouse cIAP1/2 and XIAP, respectively (1:5000; Cyclex Co.). AlexaFluor680 (Invitrogen) or IRDye800 (Li-Cor) (1:2500) were used to detect the primary antibodies, and infrared fluorescent signals were detected using the Odyssey Infrared Imaging System (Li-Cor).

## CC[C@H](NC(=O)[C@H](C)NC)C(=O)N1C[C@@H](O)C[C@H]1Cc1c(-c2[nH]c3cc(F)ccc3c2C[C@@H]2C[C@H](O)CN2C(=O)[C@H](CC)NC(=O)[C@H](C)NC)[nH]c2cc(F)ccc12 [Birinapant]
[1]; ip
  survival: significant increase in survival

## CN[C@@H](C)C(=O)N[C@H](C(=O)N1CCC[C@H]1c1nc(C(=O)c2ccc(F)cc2)cs1)C1CCCCC1 [LCL161]
cIAP1/2 and XIAP; [12]
  duration of cIAP1/2 knockdown in tumors: at least 24 hrs
  duration of cIAP1/2 knockdown in tumors, in some cases (up to): 48 to 72 h
cIAP1/2 and XIAP; direct intracranial injection, 10 μL of a 100 μM solution
  IAP levels in intracranial CT-2A tumors: potent down-regulation of both cIAP1/2 and XIAP proteins
cIAP1/2 and XIAP; systemic SMC, several hours after drug administration, indicative of crossing the BBB
  IAP levels in intracranial CT-2A tumors: degradation of cIAP1/2 proteins
SNB75 cells [2]
  effect of SMC on induction of TRAIL and TNFα by IFNβ: potentiated the induction
SNB75 cells [3]
  EC50: > 2500 nM
[1]
  cure rate: 50%
  cure rate upon depletion of CD4+ T-cells: 100%
  cure rate upon depletion of CD8+ T-cells: completely abrogated
  durable cures: 86% and 55%
  effect of IFNAR1 blocking antibody on SMC + anti-PD1 survival synergy: negated the synergistic effects
  effect of anti-IFN-γ antibody on SMC + ICI synergy: partially inhibited the synergistic effects
  effect of systemic TNF-α blockade on SMC + ICI efficacy: almost a complete reversal of the efficacy
  neurotoxicity: did not result in any overt neurotoxicity
  physical or behavioral defects in long-term survivors: no overt physical or behavioral defects
[1]; po
  expected survival rate: 86%
Serum cytokines
  serum IFN-, IL-1-α, IL-1β, IL-17, IFN-γ, IL-27, GM-CSF: statistically significant increases
[4]
  durable cure rate: 33%
MPC-11 Fluc cells
  tolerability, combination treatment: not well tolerated
  tumour burden (luminescence signal): almost no tumour burden
  tumour burden, combination treatment: did not reduce tumour burden as effectively as VSVΔ51 alone
HT-29 tumors
  effect on HT-29 tumors, monotherapy: neither monotherapy had any effect
CD8 T-cells
  CD8+ T-cells expressing TNF-α: significantly increased the proportion of CD8+ T-cells expressing TNF-α
[5]
  CD4+ and CD25+ T-cells (Treg) in tumors: significant decrease
  CD4+ cells expressing IFN-γ: decrease in the proportion of CD4+ cells expressing IFN-γ
  CD8+ T-cells expressing PD-1 in tumors: significant increase in CD8+ T-cells expressing PD-1
[5]; po, 75 mg/kg
  CD3+ and CD3+ CD8+ cells expressing PD-1: robust increase
Glioblastoma cells
  death of cultured and primary glioblastoma cell lines: killed
  sensitivity of CT-2A cells to combined SMC and recombinant IFN-α: partially sensitive
EMT6 cells [6]
  EC50: > 2500 nM
EMT6, 4T1 or CT-2A cells
  tumor engraftment on rechallenge of cured mice: completely resistant to tumor engraftment
[7]
  tolerability: well tolerated
  tolerability of combination therapies: well tolerated
[7]; po, 50 mg/kg
  body weight after a single treatment: minimal transient weight loss
MM cells
  cIAP1 and cIAP2 protein: rapid degradation of cIAP1 and cIAP2
Cancer cells
  cell death by UV-inactivated conditioned media of VSVΔ51-infected cells: induced cell death only when the cells were co-treated with an SMC
CT-26 tumors
  tumor growth and survival, single agent: modest decrease of the tumor growth rate and a slight extension of survival
VSVΔ51
  effect of SMC treatment on growth kinetics of VSVΔ51: does not affect the growth kinetics
[8]
  PD-L1 expression: Comparable upregulation
EMT6 mammary tumors; BCG intratumorally or intraperitoneally
  tumor response, oral SMC + BCG: significant tumor regression
EMT6 mammary tumors; mouse, in vivo
  durable cure rate: 75%
  durable cures of treated mice: 88%
  tumor growth and survival, single agent: a decrease in the rate of tumor growth and a modest extension in survival; also recorded: slightly delayed EMT6 tumor growth rates and slightly extended the survival
EMT6 mammary tumors; mouse, in vivo, ip
  cure rate: 57%
  durable cures of treated mice: 60%
Glioma cells
  surface expression of PD-L1 and MHC I markers: no significant impact

## CC(C)Cn1cnc2c(N)nc3ccccc3c21 [imiquimod]
EMT6 cells [9]
  bystander death of SMC treated EMT6 cells: required splenocytes

## IFNα
[1]
  neurotoxicity: did not result in any overt neurotoxicity
  physical or behavioral defects in long-term survivors: no overt physical or behavioral defects
[10]
  killing of MM cells with SMC: very strong synergistic killing
EMT6 mammary tumors; mouse, in vivo
  tumor growth and survival, single agent: no effect on EMT6 tumor growth or overall survival

## poly(I:C)
[1]
  physical or behavioral defects in long-term survivors: no overt physical or behavioral defects
TNF-α
  TNFα levels from the brain: marked up-regulation
EMT6 cells [9]
  bystander death of SMC treated EMT6 cells: led to EMT6 cell death directly
[7]
  toxicity of intracranial administration: without overt toxicities
[11]
  cell death by brain lysates of treated mice in the presence of SMCs: enhanced cell death
EMT6 mammary tumors; mouse, in vivo
  tumor growth and survival, single agent: no bearing on tumor growth
